Patent US20260116910A1, “POLYCYCLIC COMPOUNDS AND METHODS THEREOF” (HEPAITECH (BEIJING) BIOPHARMA TECHNOLOGY CO., LTD., priority 2021, published 2026)
Several values for one entry are separate records, joined by “and”; a condition that tells them apart may be missing. Equal entries are not always repeated.

Columns and labels:
human FXR (NR1H4) = biological target: T1, human FXR (NR1H4) (Homo sapiens, UniProt Q96RI1); assay: Human FXR (NR1H4) agonist assessment, FXRE-NanoLuc reporter in HEK293T cells; assay type: cell-based; conditions: FXR activation, HEK293T FXRE-NanoLuc reporter, 24 hr; for EC50: read-out: EC50
T1 sequence (Q96RI1 1-476 isoform Q96RI1-1): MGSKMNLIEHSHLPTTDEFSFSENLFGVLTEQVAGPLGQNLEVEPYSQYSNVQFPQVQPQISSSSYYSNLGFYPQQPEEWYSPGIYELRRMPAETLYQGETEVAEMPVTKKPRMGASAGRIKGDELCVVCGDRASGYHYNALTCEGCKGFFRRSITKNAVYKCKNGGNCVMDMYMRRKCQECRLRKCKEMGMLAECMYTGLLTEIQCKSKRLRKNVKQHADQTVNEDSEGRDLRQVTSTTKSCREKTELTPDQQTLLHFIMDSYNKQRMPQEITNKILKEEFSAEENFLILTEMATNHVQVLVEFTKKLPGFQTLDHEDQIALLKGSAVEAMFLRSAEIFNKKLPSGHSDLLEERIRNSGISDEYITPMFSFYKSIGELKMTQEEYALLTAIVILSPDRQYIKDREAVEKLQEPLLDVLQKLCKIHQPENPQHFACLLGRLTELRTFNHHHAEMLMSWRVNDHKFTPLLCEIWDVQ
In short: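 HEK293T cells stably expressing human FXR with an FXRE-NanoLuc reporter were treated with compounds for 24 hr at 37 °C, with 0.01% DMSO as negative control. Medium was read for luminescence after 5 min with coelenterazine. EC50 was fitted by sigmoid to concentration-response data.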

MRGPRX4 = MRGPRX4 (Homo sapiens, UniProt Q96LA9); assay: MRGPRX4 activation, Fluo-8 Ca2+ FLIPR assay in HEK293T cells stably expressing MRGPRX4; assay type: cell-based; design: key to MRGPRX4 activation, Average / MRGPRX4 activation, Ave.: fluorescence change dF/F0; conditions: for EC50: MRGPRX4 activation, Ca2+ fluorescence, no activation in tested range reported as III, read-out: Activity (EC50 μM)
In short: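 Cells seeded overnight to >95% confluence, loaded 40-60 min at room temperature with 2 μM Fluo-8 AM, then kept in HHBS. Baseline read 30 s, compound added, signal followed 150 s more.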

Sequence of MRGPRX4 (Q96LA9 whole entry): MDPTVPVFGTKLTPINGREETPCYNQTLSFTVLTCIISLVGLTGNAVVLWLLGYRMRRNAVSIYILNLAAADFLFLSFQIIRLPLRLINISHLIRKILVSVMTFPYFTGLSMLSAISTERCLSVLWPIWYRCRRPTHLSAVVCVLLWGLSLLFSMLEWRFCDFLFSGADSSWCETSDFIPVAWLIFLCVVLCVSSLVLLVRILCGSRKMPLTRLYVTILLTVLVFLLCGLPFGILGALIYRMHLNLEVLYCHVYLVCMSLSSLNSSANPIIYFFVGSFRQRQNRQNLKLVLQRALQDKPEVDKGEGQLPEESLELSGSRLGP

Structure (SMILES)	Efficacy (maximum measured induction of NanoLuc, normalized to CDCA set as 100%) (human FXR (NR1H4))	EC50 (human FXR (NR1H4)) [nM]	MRGPRX4 activation, fluorescence change (dF/F0), Average (MRGPRX4; Conc. (Log[M]) −4.5)	EC50 (MRGPRX4) [µM]	MRGPRX4 activation, Average (MRGPRX4; E3-9, Conc. (Log[M]) −4.0)	MRGPRX4 activation, Average (MRGPRX4; E3-9, Conc. (Log[M]) −4.5)	MRGPRX4 activation, Average (MRGPRX4; E3-9, Conc. (Log[M]) −5.0)	MRGPRX4 activation, Average (MRGPRX4; E3-9, Conc. (Log[M]) −5.4)	MRGPRX4 activation, Average (MRGPRX4; E3-9, Conc. (Log[M]) −5.9)	MRGPRX4 activation, Average (MRGPRX4; E3-9, Conc. (Log[M]) −6.4)	MRGPRX4 activation, Average (MRGPRX4; E3-9, Conc. (Log[M]) −6.9)	MRGPRX4 activation, Average (MRGPRX4; E3-9, Conc. (Log[M]) −7.3)	MRGPRX4 activation, Average (MRGPRX4; E3-9, Conc. (Log[M]) −7.8)	MRGPRX4 activation, Average (MRGPRX4; E3-9, Conc. (Log[M]) −8.3)	MRGPRX4 activation, fluorescence change (dF/F0), Average (MRGPRX4; Conc. (Log[M]) −4)	MRGPRX4 activation, fluorescence change (dF/F0), Average (MRGPRX4; Conc. (Log[M]) −5)	MRGPRX4 activation, fluorescence change (dF/F0), Average (MRGPRX4; Conc. (Log[M]) −5.5)	MRGPRX4 activation, fluorescence change (dF/F0), Average (MRGPRX4; Conc. (Log[M]) −6)	MRGPRX4 activation, fluorescence change (dF/F0), Average (MRGPRX4; Conc. (Log[M]) −7)	other results
CC[C@H]1[C@@H](O)[C@@H]2[C@H](CC[C@]3(C)[C@@H]([C@H](C)CCC(=O)NS(C)(=O)=O)CC[C@@H]23)[C@@]2(C)CC[C@H](F)C[C@@H]12 [9-7]	A (efficacy >400%)	1000 to 10000	0.022 and 0.037	> 100																
CC[C@H]1[C@@H](O)[C@@H]2[C@H](CC[C@]3(C)[C@@H]([C@H](C)CCNC(=O)NS(=O)(=O)c4ccc(Br)cc4OC(F)(F)F)CC[C@@H]23)[C@@]2(C)CC[C@H](F)C[C@@H]12 [9-6]	C (100%<efficacy <=300%)	< 1000		> 100	0.021	0.014	0.016	0.010	0.019	0.018	0.016	0.014	0.012	0.016						
C[C@H](CCC(=O)O)[C@H]1CC[C@H]2[C@@H]3CC[C@@H]4C[C@@H](O)CC[C@]4(C)[C@H]3C[C@H](O)[C@]12C [RC-5]	B (300%<efficacy <=400%)	1000 to 10000	0.228												0.300	0.166	0.030	−0.009	−0.017	MRGPRX4 activation, fluorescence change (dF/F0), Average (MRGPRX4; Conc. (Log[M]) −8): −0.021; MRGPRX4 activation, fluorescence change (dF/F0), Average (MRGPRX4; Conc. (Log[M]) −9): −0.007
CC(=O)CC[C@@H](C)[C@H]1CC[C@H]2[C@@H]3CC[C@@H]4CCCC[C@]4(C)[C@H]3CC[C@]12C [compound 21]	C (100%<efficacy <=300%)	1000 to 10000		> 100																
CC[C@H]1[C@@H](O)[C@@H]2[C@H](CC[C@]3(C)[C@@H]([C@H](C)CCNC(=O)NS(=O)(=O)c4cc(F)cc(F)c4)CC[C@@H]23)[C@@]2(C)CC[C@H](F)C[C@@H]12 [9-3]	B (300%<efficacy <=400%)	< 1000		> 100	0.006	0.004	0.018	0.019	0.019	0.016	0.014	0.018	0.016	0.016						
CC[C@H]1[C@@H](O)[C@@H]2[C@H](CC[C@]3(C)[C@@H]([C@H](C)CCNS(=O)(=O)C4CC4)CC[C@@H]23)[C@@]2(C)CCCC[C@@H]12 [6-5]	C (100%<efficacy <=300%)	1000 to 10000		> 100	0.025	0.020	0.018	0.020	0.018	0.016	0.018	0.016	0.020	0.018						
CCOC(=O)C(=O)NCC[C@@H](C)[C@H]1CC[C@H]2[C@@H]3[C@H](O)[C@H](CC)[C@@H]4CCCC[C@]4(C)[C@H]3CC[C@]12C [compound 53]	C (100%<efficacy <=300%)	< 1000		> 100	0.030	0.016	0.013	0.020	0.011	0.013	0.013	0.013	0.008	0.011						
C[C@H](CC(=O)O)[C@H]1CC[C@H]2[C@@H]3CC[C@@H]4C[C@H](O)CC[C@]4(C)[C@H]3C[C@H](O)[C@]12C [RC-1]	B (300%<efficacy <=400%)	1000 to 10000	0.080	< 50											0.329	−0.029	−0.019	−0.015	−0.010	MRGPRX4 activation, fluorescence change (dF/F0), Average (MRGPRX4; Conc. (Log[M]) −8): −0.003; MRGPRX4 activation, fluorescence change (dF/F0), Average (MRGPRX4; Conc. (Log[M]) −9): −0.005
CC(C[C@@H](C)[C@H]1CC[C@H]2[C@@H]3CC[C@@H]4CCCC[C@]4(C)[C@H]3CC[C@]12C)C(=O)O (stereo partly drawn) [2-1]	C (100%<efficacy <=300%)	> 10000	−0.014	> 100											0.071	−0.045	−0.072	−0.095	−0.110	MRGPRX4 activation, fluorescence change (dF/F0), Average (MRGPRX4; Conc. (Log[M]) −8): −0.072; MRGPRX4 activation, fluorescence change (dF/F0), Average (MRGPRX4; Conc. (Log[M]) −9): −0.091
[2H]C1CC[C@@]2(C)[C@@H](C1)[C@@H](CC)[C@@H](O)[C@@H]1[C@@H]2CC[C@]2(C)[C@@H]([C@H](C)CCC(=O)O)CC[C@@H]12 (stereo partly drawn) [13-1]	C (100%<efficacy <=300%)	< 1000		> 100	0.104	−0.009	0.013	0.013	0.018	0.015	0.018	0.013	0.010	0.013						
CC[C@H]1[C@@H](O)[C@@H]2[C@H](CC[C@]3(C)[C@@H]([C@H](C)CCNC(=O)NS(=O)(=O)c4ccc5c(c4)CCN5C(C)=O)CC[C@@H]23)[C@@]2(C)CCCC[C@@H]12 [5-4]	B (300%<efficacy <=400%)	< 1000	0.017	> 100											0.097	0.020	0.020	0.013	0.017	
CC[C@H]1[C@@H](O)[C@@H]2[C@H](CC[C@]3(C)[C@@H]([C@H](C)CCNC(=O)NS(=O)(=O)c4ccc(C(C)(C)CN)cc4)CC[C@@H]23)[C@@]2(C)CCCC[C@@H]12 [5-18]	B (300%<efficacy <=400%)	< 1000	0.008	> 100																MRGPRX4 activation, fluorescence change (dF/F0), Average (MRGPRX4; Conc. (Log[M]) −4.0): 0.018; MRGPRX4 activation, fluorescence change (dF/F0), Average (MRGPRX4; Conc. (Log[M]) −5.0): 0.021; MRGPRX4 activation, fluorescence change (dF/F0), Average (MRGPRX4; Conc. (Log[M]) −5.4): 0.021; MRGPRX4 activation, fluorescence change (dF/F0), Average (MRGPRX4; Conc. (Log[M]) −5.9): 0.021; MRGPRX4 activation, fluorescence change (dF/F0), Average (MRGPRX4; Conc. (Log[M]) −6.4): 0.021; MRGPRX4 activation, fluorescence change (dF/F0), Average (MRGPRX4; Conc. (Log[M]) −6.9): 0.011; MRGPRX4 activation, fluorescence change (dF/F0), Average (MRGPRX4; Conc. (Log[M]) −7.3): 0.018; MRGPRX4 activation, fluorescence change (dF/F0), Average (MRGPRX4; Conc. (Log[M]) −7.8): 0.020; MRGPRX4 activation, fluorescence change (dF/F0), Average (MRGPRX4; Conc. (Log[M]) −8.3): 0.013
